Patent publication EP4722363A1, “RNAI AGENT FOR INHIBITING ANGPTL3 EXPRESSION AND USE THEREOF” (YUN HO BIO CO., LTD, priority 2023, dated 2024)

How the values were obtained:
ANGPTL3 [1] = test: In vivo efficacy of ANGPTL3 GalNAc-siRNA in HFD-induced hyperlipidemic cynomolgus monkeys; conditions: single subcutaneous injection, normalized to pre-treatment, Fig. 2
Procedure: To evaluate the in vivo activity of siRNA against ANGPTL3, 6 HFD-induced hyperlipidemic cynomolgus monkeys were used for the experiment. Pre-dose serum samples were obtained after a 4-hour fast on days -7 and -14. The siRNA conjugate was diluted with saline and administered subcutaneously according to the experimental design on day 0. Blank saline was used as a negative control. Plasma was collected after a 4-hour fast on days 0, 7, 14, 28, 42, 49, and 56. Serum triglycerides were detected using an automatic biochemical analyzer.
The ANGPTL3 protein levels and triglyceride levels for each animal were normalized. For normalization, at a given time point, the ANGPTL3 protein and triglyceride levels of each animal were divided by the pre-treatment expression level of that animal (the average of the pre-experiment samples for that group) to determine the change in "normalization to pre-treatment".

ANGPTL3 Protein [2] = test: PHH free uptake, inhibition of ANGPTL3, ELISA of supernatant; type: cell-based; conditions: primary human hepatocytes, 72 hours
Procedure: PHH cells were thawed and adjusted to a density of 6×10^5 cells/mL. Then, 10 µL of the compound from the dilution plate was added to the cell culture plate, resulting in final compound concentrations of 100, 40, 12.5, 5, and 2 nM. The cells were seeded into a 96-well plate at a density of 54,000 cells per well (90 µL/well), with a final culture volume of 100 µL per well. The cells were cultured in a 5% CO2 incubator at 37°C for 72 hours.
(§1) The supernatant from the PHH and PCH cultures from the previous steps was collected, transferred to a new 96-well V-bottom plate, and centrifuged. Human Angiopoietin-like 3 protein (hANGPTL3 protein; DANL30) ELISA test was performed according to the instructions of HANGPTL 3 protein Kit.
(§2) Data Analysis: Four Parameter Logistic method. This method constructs a standard curve by plotting, with the y-axis as the average absorbance of the standards and the x-axis as the concentration, drawing a best-fit curve through the points on the graph. The OD value of the log concentration of the sample's HANGPTL3 protein is determined against the best-fit line of the log concentration by regression analysis. [formula]
(§3) Sequences with good activity in Table 8 were evaluated for in vitro inhibitory activity against ANGPTL3 Protein in primary human hepatocytes (PHH) and primary cynomolgus monkey hepatocytes (PCH). Table 10. In Vitro Inhibitory Activity of MCPP-siRNAs against ANGPTL3 mRNA in PHH Cell Line

ANGPTL3 [3] = test: In vivo efficacy of ANGPTL3 GalNAc-siRNAs in hANGPTL3 humanized mice; conditions: 3 mg/kg subcutaneous on day 0; days 7, 14, 21, 28; normalized to day -1; compared to the control; Fig. 1
Procedure: To evaluate the in vivo efficacy of siRNA against ANGPTL3 in mice, female ANGPTL3 humanized mice (purchased from Shanghai Model Organisms Center, Inc.) were used for in vivo efficacy testing. Mice were randomly divided into 5 groups, with 5 mice per group: G1, Control (PBS) negative control group; G2, 2002-034-001 (3 mg/kg) treatment group; G3, 2008-010-001 (3 mg/kg) treatment group; G4, 2008-019-001 (3 mg/kg) treatment group; and G5, 2008-019-002 (3 mg/kg) treatment group.
On days -7 and -1, pre-dose plasma samples were obtained after a 4-hour fast. The above siRNA conjugates were diluted with saline and administered subcutaneously to the mice according to body weight on day 0. Plasma was collected after a 4-hour fast on days 7, 14, 21, and 28, respectively. The ANGPTL3 protein level in plasma was detected by ELISA (R&D Systems). Plasma triglycerides (TG), total cholesterol (CHO), high-density lipoprotein cholesterol (HDL-c), low-density lipoprotein cholesterol (LDL-c), alanine aminotransferase (ALT), and aspartate aminotransferase (AST) were tested by Shanghai Bikai Keyi Biotechnology Co., Ltd.
To evaluate the in vivo efficacy of the siRNAs against ANGPTL3 in mice, female ANGPTL3 humanized mice (purchased from Shanghai Model Organisms Center, Inc.) were used for the efficacy study. The mice were randomly allocated into five groups (n=5 per group) as follows: • G1: Control (PBS) negative control group; • G2: 2002-034-001 (3 mg/kg) treatment group; • G3: 2008-010-001 (3 mg/kg) treatment group; • G4: 2008-019-001 (3 mg/kg) treatment group; • G5: 2008-019-002 (3 mg/kg) treatment group.
The day of the first administration was designated as day 0. Accordingly, the day before administration was designated as day -1, and the day after administration as day 1.
On day -7, all mice were fasted for 4 hours, and mandibular blood was collected to obtain plasma for hANGPTL3 protein detection. […]
On day -1, pre-dose plasma samples were obtained after a 4-hour fast. […] The ANGPTL3 protein level in plasma was detected by ELISA (R&D Systems). […]

ANGPTL3 Protein [4] = test: PCH free uptake, inhibition of ANGPTL3, ELISA of supernatant; type: cell-based; conditions: primary cynomolgus monkey hepatocytes, 72 hours
Procedure: PCH cells were resuscitated using 10% FBS InvitroGRO™ HT Medium, and subsequently, the cell density was adjusted to 3×10^5 cells/mL using 10% FBS InvitroGRO™ CP Medium. Then, 10 µL of the compound from the dilution plate was added to the cell culture plate, resulting in final compound concentrations of 25, 5, and 1 nM. The cells were seeded into a 96-well plate at a density of 27,000 cells per well (90 µL/well), with a final culture volume of 100 µL per well. The cells were cultured in a 5% CO2 incubator at 37 °C for 72 hours.
as §1, §2, §3

## 2008-010-001: GalNAc-conjugated modified ANGPTL3 siRNA, sense SEQ ID NO 40 (3'-YHZY12001), antisense SEQ ID NO 27 (sense GAGAAGAACUACAUAUAAA; antisense UUUAUAUGUAGUUCUUCUCAG; GalNAc conjugate YHZY12001 at sense 3', chemistry not fully specified) [Duplex 2008-010-001]
ANGPTL3 [1]
  serum ANGPTL3 protein level: significantly inhibited
ANGPTL3 [1]; serum
  triglyceride level: significantly reduced
ANGPTL3 Protein [2]
  IC50: 0.81 nM
ANGPTL3 [3]
  level of ANGPTL3 protein in the plasma: significantly reduced
  level of total cholesterol (CHO) in the plasma: significantly reduced
  level of triglycerides (TG) in the plasma: significantly reduced
ANGPTL3 Protein [4]; 1nM
  Average Inhibition in PCH %: 62.75%
ANGPTL3 Protein [4]; 5nM
  Average Inhibition in PCH %: 74.73%
ANGPTL3 Protein [4]; 25nM
  Average Inhibition in PCH %: 78.39%
